Assay results reported in article doi:10.64898/2025.12.08.692997v2 (biorxiv, 2025).
Where a name gives a salt, the structure may show the parent alone. Read-outs that look alike come from different tables or passages of the source.

How the values were obtained:
Assay in all cases: biochemical
[1] = molecular target: T1, human EphB2-His ectodomain - human EphrinB2-Fc ectodomain (EphB2-EphrinB2 tetramer) (Homo sapiens, UniProt P29323+P52799); details: EphrinB2-EphB2 IC50 (Absolute, µM)
[2] = molecular target: T1, human EphB2-His ectodomain - human EphrinB2-Fc ectodomain (EphB2-EphrinB2 tetramer); details: EphrinB2-EphB2 IC50 (Relative, µM)
[3] = molecular target: T1, human EphB2-His ectodomain - human EphrinB2-Fc ectodomain (EphB2-EphrinB2 tetramer)

T1 sequence (P52799 28-229): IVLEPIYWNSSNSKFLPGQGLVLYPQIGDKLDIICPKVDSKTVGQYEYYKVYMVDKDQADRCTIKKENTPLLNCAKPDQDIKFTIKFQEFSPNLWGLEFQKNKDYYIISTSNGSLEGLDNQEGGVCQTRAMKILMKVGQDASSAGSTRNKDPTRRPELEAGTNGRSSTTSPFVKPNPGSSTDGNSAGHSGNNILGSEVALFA
T1 sequence (P29323 19-543): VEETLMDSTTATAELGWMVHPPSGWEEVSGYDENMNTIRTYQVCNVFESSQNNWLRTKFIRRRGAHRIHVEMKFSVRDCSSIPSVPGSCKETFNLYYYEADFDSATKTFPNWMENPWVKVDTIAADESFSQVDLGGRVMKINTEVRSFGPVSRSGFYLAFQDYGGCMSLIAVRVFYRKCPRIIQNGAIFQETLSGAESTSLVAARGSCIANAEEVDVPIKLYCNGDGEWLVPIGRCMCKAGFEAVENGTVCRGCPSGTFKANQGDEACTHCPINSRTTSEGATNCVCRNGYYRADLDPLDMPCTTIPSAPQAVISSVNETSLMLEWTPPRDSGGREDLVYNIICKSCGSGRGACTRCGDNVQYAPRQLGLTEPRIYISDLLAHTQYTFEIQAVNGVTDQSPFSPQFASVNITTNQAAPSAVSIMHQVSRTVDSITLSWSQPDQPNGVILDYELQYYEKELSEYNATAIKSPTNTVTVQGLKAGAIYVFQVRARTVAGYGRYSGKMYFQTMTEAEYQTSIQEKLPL

Structure (SMILES): Cc1ccc2c(CN3CCOCC3)cc(Br)c(O)c2n1 [2-MeA20, 7-bromo-2-methyl-5-(morpholinomethyl)quinolin-8-ol]
- IC50 [1]: > 3.2 µM

Structure (SMILES): Cc1ccc2c(CN3CCN(c4ccc(Br)cc4)CC3)ccc(O)c2n1 [2-MeQPB4 . 2 HCl, 5-((4-(4-bromophenyl)piperazin-1-ium-1-yl)methyl)-8-hydroxy-2-methylquinolin-1-ium chloride]
- IC50 [2]: > 1.6 µM
- IC50 [1]: > 1.6 µM

Structure (SMILES): Cc1ccc2c(CN3CCN(c4ccc(Br)cc4)CC3)ccc(O)c2n1 [2-MeQPB4, 5-((4-(4-bromophenyl)piperazin-1-yl)methyl)-2-methylquinolin-8-ol]
- IC50 [2]: > 3.2 µM
- IC50 [1]: > 3.2 µM

Structure (SMILES): OCc1ccc2c(CN3CCOCC3)ccc(O)c2n1 [2OH-A19, 2-(hydroxymethyl)-5-(morpholinomethyl)quinolin-8-ol]
- IC50 [2]: > 3.2 µM
- IC50 [1]: > 3.2 µM

Structure (SMILES): OCc1ccc2c(CN3CCOCC3)cc(Br)c(O)c2n1 [2OH-A20, 7-bromo-2-(hydroxymethyl)-5-(morpholinomethyl)quinolin-8-ol]
- IC50 [1]: > 3.2 µM

Structure (SMILES): COc1ccccc1N1CCN(Cc2cc(Br)c(O)c3ncccc23)CC1 [3511-0013, 7-bromo-5-((4-(2-methoxyphenyl)piperazin-1-yl)methyl)quinolin-8-ol]
- IC50 [1]: > 1.6 µM

Structure (SMILES): COc1ccccc1N1CCN(Cc2ccc(O)c3ncccc23)CC1 [3511-0013-BF, 5-((4-(2-methoxyphenyl)piperazin-1-yl)methyl)quinolin-8-ol]
- IC50 [1]: > 3.2 µM

Structure (SMILES): Oc1ccc(CN2CCOCC2)c2cccnc12 [A19 . 2 HCl, 4-((8-hydroxyquinolin-1-ium-5-yl)methyl)morpholin-4-ium chloride]
- IC50 [1]: > 6.4 µM

Structure (SMILES): O=[N+]([O-])c1cc(CN2CCOCC2)c2cccnc2c1O [A19-NO2 . 2 HCl, 4-((8-hydroxy-7-nitroquinolin-1-ium-5-yl)methyl)morpholin-4-ium chloride]
- IC50 [2]: > 1.6 µM
- IC50 [1]: > 1.6 µM

Structure (SMILES): O=[N+]([O-])c1cc(CN2CCOCC2)c2cccnc2c1O [A19-NO2, 5-(morpholinomethyl)-7-nitroquinolin-8-ol]
- IC50 [2]: > 3.2 µM
- IC50 [1]: > 3.2 µM

Structure (SMILES): Oc1c(Br)cc(CN2CCOCC2)c2cccnc12 [A20 . 2 HCl, 4-((7-bromo-8-hydroxyquinolin-1-ium-5-yl)methyl)morpholin-4-ium chloride]
- IC50 [1]: 0.78 µM

Structure (SMILES): O=C(Cc1ccccc1)Nc1ccc(N2CCN(Cc3cc(Br)c(O)c4ncccc34)CC2)cc1 [BQPA-PAc, N-(4-(4-((7-bromo-8-hydroxyquinolin-5-yl)methyl)piperazin-1-yl)phenyl)-2-phenylacetamide]
- IC50 [2]: > 3.2 µM
- IC50 [1]: > 3.2 µM

Structure (SMILES): Oc1c(Br)cc(CN2CCN(Cc3ccc(Br)cc3)CC2)c2cccnc12 [BQPB4-Bn, 7-bromo-5-((4-(4-bromobenzyl)piperazin-1-yl)methyl)quinolin-8-ol]
- IC50 [1]: > 3.2 µM

Structure (SMILES): COc1ccc2[nH]cc(C(=O)N3CCOCC3)c2c1 [IM, (5-methoxy-1H-indol-3-yl)(morpholino)methanone]
- IC50 [2]: > 3.2 µM
- IC50 [1]: > 3.2 µM

Structure (SMILES): COc1ccc2[nH]cc(C(=O)N3CCN(c4ccccc4OC)CC3)c2c1 [IMP2, (5-methoxy-1H-indol-3-yl)(4-(2-methoxyphenyl)piperazin-1-yl)methanone]
- IC50 [2]: > 1.6 µM
- IC50 [1]: > 1.6 µM

Structure (SMILES): COc1ccc2[nH]cc(C(=O)N3CCN(c4ccc(Br)cc4)CC3)c2c1 [IPB4, (4-(4-bromophenyl)piperazin-1-yl)(5-methoxy-1H-indol-3-yl)methanone]
- IC50 [2]: > 1.6 µM
- IC50 [1]: > 1.6 µM

Structure (SMILES): CC(=O)Nc1ccc(N2CCN(Cc3ccc(O)c4ncccc34)CC2)cc1 [QPA-Ac, N-(4-(4-((8-hydroxyquinolin-5-yl)methyl)piperazin-1-yl)phenyl)acetamide]
- IC50 [1]: > 3.2 µM

Structure (SMILES): Oc1ccc(CN2CCN(c3ccc(Br)cc3)CC2)c2cccnc12 [QPB4 . 2 HCl, 5-((4-(4-bromophenyl)piperazin-1-ium-1-yl)methyl)-8-hydroxyquinolin-1-ium chloride]
- IC50 [1]: > 1.6 µM

Structure (SMILES): Oc1ccc(CN2CCN(Cc3ccc(C(F)(F)F)cc3)CC2)c2cccnc12 [QPCF34-Bn, 5-((4-(4-(trifluoromethyl)benzyl)piperazin-1-yl)methyl)quinolin-8-ol]
- IC50 [2]: > 1.6 µM
- IC50 [1]: > 1.6 µM

Structure (SMILES): Oc1ccc(CN2CCN(c3ccc(F)cc3F)CC2)c2cccnc12 [QPDF, 5-((4-(2,4-difluorophenyl)piperazin-1-yl)methyl)quinolin-8-ol]
- IC50 [2]: > 1.6 µM
- IC50 [1]: > 1.6 µM

Structure (SMILES): Oc1ccc(CN2CCN(c3ccc(I)cc3)CC2)c2cccnc12 [QPI4 . 2HCl, 8-hydroxy-5-((4-(4-iodophenyl)piperazin-1-ium-1-yl)methyl)quinolin-1-ium chloride]
- IC50 [1]: > 1.6 µM

Structure (SMILES): Oc1ccc(CN2CCN(c3ccc(Br)cn3)CC2)c2cccnc12 [QPP. 2 HCl, 5-((4-(5-bromopyridin-2-yl)piperazin-1-ium-1-yl)methyl)-8-hydroxyquinolin-1-ium chloride]
- IC50 [1]: > 3.2 µM

Structure (SMILES): Oc1ccc(CN2CCN(c3ccccc3)CC2)c2cccnc12 [QPPh . 2HCl, 8-hydroxy-5-((4-phenylpiperazin-1-ium-1-yl)methyl)quinolin-1-ium chloride]
- IC50 [2]: > 1.6 µM
- IC50 [1]: > 1.6 µM

Structure (SMILES): Oc1ccc(CN2CCN(c3ccccc3)CC2)c2cccnc12 [QPPh, 5-((4-phenylpiperazin-1-yl)methyl)quinolin-8-ol]
- IC50 [1]: > 3.2 µM

Structure (SMILES): O=S1(=O)CCN(Cc2cc(Br)c(O)c3ncccc23)CC1 [QTM-Br . 2 HCl, 4-((7-bromo-8-hydroxyquinolin-1-ium-5-yl)methyl)thiomorpholin-4-ium 1,1-dioxide chloride]
- IC50 [2]: 0.62 µM

Structure (SMILES): O=S1(=O)CCN(Cc2cc(I)c(O)c3ncccc23)CC1 [QTM-I . 2 HCl, 4-((8-hydroxy-7-iodoquinolin-1-ium-5-yl)methyl)thiomorpholin-4-ium 1,1-dioxide chloride]
- IC50 [1]: > 1.6 µM

Structure (SMILES): O=[N+]([O-])c1cc(CN2CCS(=O)(=O)CC2)c2cccnc2c1O [QTM-NO2, 4-((8-hydroxy-7-nitroquinolin-5-yl)methyl)thiomorpholine 1,1-dioxide]
- IC50 [1]: > 3.2 µM

Structure (SMILES): O=C(Oc1cccc2cccnc12)c1ccc(Br)cc1 [compound 1, 8-quinolinyl 4-bromobenzoate]
- IC50 [3]: > 100 µM

Structure (SMILES): O=C(Oc1ccc(Cl)c2cccnc12)c1cccc(Br)c1 [compound 7, 5-chloro-8-quinolinyl 3-bromobenzoate]
- IC50 [3]: > 100 µM

Structure (SMILES): O=C(Oc1ccc(Cl)c2cccnc12)c1cccc(Cl)c1 [compound 8, 5-chloro-8-quinolinyl 3-chlorobenzoate]
- IC50 [3]: > 100 µM

Structure (SMILES): O=C(Oc1ccc(Cl)c2cccnc12)c1ccc(Cl)c(Cl)c1 [compound 10, 5-chloro-8-quinolinyl 3,4-dichlorobenzoate]
- IC50 [3]: > 100 µM

Structure (SMILES): COc1ccc(C(=O)Oc2cccc3cccnc23)cc1Cl [compound 13, 8-quinolinyl 3-chloro-4-methoxybenzoate]
- IC50 [3]: > 100 µM

Structure (SMILES): COc1cc(C(=O)Oc2ccc(Cl)c3cccnc23)cc(OC)c1OC [compound 14, 5-chloro-8-quinolinyl 3,4,5-trimethoxybenzoate]
- IC50 [3]: > 100 µM

Structure (SMILES): COc1cc(OC)cc(C(=O)Oc2ccc(Cl)c3cccnc23)c1 [compound 15, 5-chloro-8-quinolinyl 3,5-dimethoxybenzoate]
- IC50 [3]: > 100 µM

Structure (SMILES): COc1ccc(C(=O)Oc2ccc(Cl)c3cccnc23)cc1 [compound 16, 5-chloro-8-quinolinyl 4-methoxybenzoate]
- IC50 [3]: > 100 µM

Structure (SMILES): Cc1ccc(C(=O)Oc2c(Cl)cc(Cl)c3cccnc23)cc1C [compound 17, 5,7-dichloro-8-quinolinyl 3,4-dimethylbenzoate]
- IC50 [3]: > 100 µM
